Data taken from paper PMC4982760, “Small-molecule inhibitors identify the RAD52-ssDNA interaction as critical for recovery from replication stress and for survival of BRCA2 deficient cells” (eLife, 2016).
Structures can show the parent of a compound that is named as a salt. Where two headings read alike, the source gives them in different places.

Experiments:
[1] = molecular target: T1, RAD52-ssDNA interaction (Homo sapiens, UniProt P43351); assay: FRET-based ssDNA binding and wrapping assay (RAD52-Cy3-dT30-Cy5 complex); settings: for IC50 range for inhibition of ssDNA binding, in words / FRET value at saturation: 1 nM Cy3-dT30-Cy5, 8 nM RAD52; for FRET value at saturation: ssDNA
T1 construct: made in house
T1 sequence (P43351 1-418): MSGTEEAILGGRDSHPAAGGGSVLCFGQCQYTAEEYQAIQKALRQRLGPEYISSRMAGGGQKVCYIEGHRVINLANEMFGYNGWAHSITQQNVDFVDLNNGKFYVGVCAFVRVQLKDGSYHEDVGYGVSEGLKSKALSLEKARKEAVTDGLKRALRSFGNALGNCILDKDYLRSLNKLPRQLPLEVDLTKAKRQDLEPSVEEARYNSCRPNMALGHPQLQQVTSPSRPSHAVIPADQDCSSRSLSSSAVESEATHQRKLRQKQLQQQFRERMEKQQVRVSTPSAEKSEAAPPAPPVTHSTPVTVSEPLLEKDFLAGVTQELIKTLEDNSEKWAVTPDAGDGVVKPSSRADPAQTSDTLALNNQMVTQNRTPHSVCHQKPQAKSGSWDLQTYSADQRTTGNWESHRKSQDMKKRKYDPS
Procedure: We titrated increasing amounts of each compound into a cuvette containing preformed stoichiometric RAD52-Cy3-dT30-Cy5 complexes (1 nM Cy3-dT30-Cy5 and 8 nM RAD52). […] At each concentration of the compound, the FRET signal was adjusted for the change in Cy3 and Cy5 fluorescence in the presence of the compound, but in the absence of protein.
FRET-based ssDNA binding, dsDNA binding, and annealing assays were carried out as previously described ([Grimme et al., 2010]; [Grimme and Spies, 2011]) using Cary Eclipse spectrofluorimeter (Varian) at 25°C in buffer containing 30 mM Tris-Acetate pH7.5, 1 mM DTT, and 0.1 mg/mL BSA. Cy3 dye was excited at 530 nm and its emission was monitored at 565 nm. Emission of Cy5 acceptor fluorophore excited through the energy transfer from Cy3 donor is monitored at 660 nm simultaneously with emission of Cy3 dye. Both the excitation and the emission slit widths were set to 10 nm.
All experiments were performed in triplicates, and the data are shown as averages and standard deviations for three independent measurements. To remove possible experimental artifacts associated with chromogenic or fluorogenic compounds, as well as with the compounds that may quench or enhance Cy3 or Cy5 fluorescence, we also performed control titrations whereby we titrated each compound into 1 nM Cy3-dT30-Cy5 in the absence of RAD52. For each compound concentration we subtracted the difference in the FRET signal in the presence and absence of the compound from the respective FRET signal in the presence of RAD52. The FRET signal corrected for the compound fluorescence was calculated using the equation: FRETapp=4.2∗ICy5/4.2∗ICy5+ 1.7∗ICy3
as previously described ([Grimme et al., 2010]; [Grimme and Spies, 2011]) and plotted as a function of compound concentration and fitted to the following inhibition model” FRET([small molecule])=FRET0−FRETmin/1+10^(LogIC50−Log([small molecule])∗HillSlope),
where FRET0 is the initial FRET value of the RAD52-ssDNA complex in the absence of the compound and FRETmin is the FRET value at complete inhibition. FRET values were calculated as an average of three or more independent annealing reactions plotted against the concentration of the compound. Inhibition of the RAD52-dsDNA interaction was assayed in a similar experiments, except the stoichiometric complexes containing 1 nM molecules of Cy3-Oligo28-Cy5 duplex DNA and 10 nM RAD52.

[2] = molecular target: T2, RAD52-mediated ssDNA annealing (Homo sapiens, UniProt P43351); assay: FRET-based RAD52-mediated ssDNA annealing assay; type: biochemical
T2 construct: made in house
T2 sequence (P43351 1-418): T1 sequence (P43351 1-418)
Excerpt: To determine how the selected compounds affect the ssDNA annealing function of RAD52 we performed FRET-based annealing assays ([Grimme et al., 2010]; [Grimme and Spies, 2011]). These assays utilize two complementary single stranded 28-nucleotide-long substrates, which contain either Cy3 (T-28) or Cy5 (P-28) incorporated into the middle of the respective DNA strand. When the substrates are annealed by RAD52, the Cy3 and Cy5 dyes are separated by 3 base pairs and yield a high FRET signal (Figure 2—figure supplement 2). […] The annealing reactions were initiated by mixing two half reactions and observing the change in FRET over time in the presence of varying concentrations of small molecules. An increasing FRET value over time indicates the formation of the dsDNA duplex which brings the two dyes in close proximity (Figure 2—figure supplement 2). Fitting the annealing data to a double exponential allowed us to calculate and compare the final extent of annealing at varying concentrations of each compound compared to RAD52 alone. We plotted the final extent of annealing vs the concentration of the compound and calculated an IC50 of annealing inhibition. […] At the stoichiometric RAD52: dsDNA ratio, (1 nM dsDNA: 10 nM RAD52) the dsDNA is bent upon RAD52 binding, which allows us to distinguish the RAD52-bound and free dsDNA (Figure 2—figure supplement 1).
Annealing of complementary oligonucleotides by RAD52 was monitored under identical conditions as the binding assays described above. For each assay, the reaction master mixture containing 8 nM RAD52 protein in the presence and absence of the compounds at varying concentrations was prepared at room temperature and divided into two half reactions. Following baseline buffer and protein measurements, 0.5 nM of T-28 ssDNA substrate was added to the reaction cuvette and the signal was allowed to stabilize. The annealing reaction was initiated upon addition of the second half-reaction pre-incubated with 0.5 nM P-28 ssDNA substrate. The fluorescence of Cy3 and Cy5 were measured simultaneously over the reaction time course (500 s). FRETapp values were calculated as an average of three or more independent annealing reactions plotted against time (s). The average FRET values were fitted to a double exponential to calculate the final extent of annealing using Graphpad Prism4 software. The calculated annealing extent was plotted as a function of compound concentration and fitted to the same model as we used to determine IC50 values for the inhibition of DNA annealing.

[3] = 1 nM Cy3-dT30-Cy5, 8 nM RAD52, 25°C, read-out: IC50 (DNA binding), ssDNA
[4] = 8 nM RAD52, 0.5 nM T-28 and 0.5 nM P-28, read-out: IC50 (Annealing extent), ssDNA
[5] = read-out: IC50 (Annealing extent), ssDNA, 8 nM RAD52, 0.5 nM T-28 and 0.5 nM P-28

C=C1c2cccc(O)c2C(=O)C2=C(O)[C@]3(O)C(=O)C(C(N)=O)=C(O)[C@@H](N(C)C)[C@@H]3[C@@H](O)[C@H]12 [Compound 3, Methacycline Hydrochloride]
IC50 range for inhibition of ssDNA binding, in words [1]: micro-molar range | IC50 [1, 3]: 2 ± 0.17 µM | FRET value at saturation [1]: 0.47 ± 0.01 | IC50 [2, 4]: 3.8 ± 0.2 µM

CN(C)[C@@H]1C(O)=C(C(=O)NCN2CCCC2)C(=O)[C@@]2(O)C(O)=C3C(=O)c4c(O)cccc4[C@@](C)(O)[C@H]3C[C@@H]12 [Compound 4, Rolitetracycline]
IC50 [1]: 29 ± 8.2 µM | IC50 range for inhibition of ssDNA binding, in words [1]: mid micro-molar range | FRET value at saturation [1]: 0.56 ± 0.04 | IC50 [2, 5]: > 100 µM

O=C(O[C@@H]1Cc2c(O)cc(O)cc2O[C@@H]1c1ccc(O)c(O)c1)c1cc(O)c(O)c(O)c1 [Compound 5, (−)−Epicatechin gallate]
IC50 range for inhibition of ssDNA binding, in words [1]: nano-molar range | IC50 [1, 3]: 0.255 ± 0.016 µM | FRET value at saturation [1]: 0.41 ± 0.004 | IC50 [2, 4]: 20 ± 0.7 µM

Oc1cc(O)c2c(c1)O[C@H](c1ccc(O)c(O)c1)[C@H](O)C2 [Compound 7, (−)−Epicatechin]
IC50 range for inhibition of ssDNA binding, in words [1]: micro-molar range | IC50 [1, 3]: 1.45 ± 0.11 µM | FRET value at saturation [1]: 0.51 ± 0.01 | IC50 [2, 4]: > 100 µM

NCCc1cc(O)c(O)cc1O [Compound 14, Oxidopamine]
IC50 [1]: 0.779 ± 0.051 µM | IC50 range for inhibition of ssDNA binding, in words [1]: nano-molar range | FRET value at saturation [1]: 0.50 ± 0.01 | IC50 [2, 5]: > 100 µM

O=C1c2ccc(O)c(O)c2C(=O)c2c(O)ccc(O)c21 [Compound 15, Quinalizarin]
IC50 range for inhibition of ssDNA binding, in words [1]: nano-molar range | IC50 [1, 3]: 0.563 ± 0.04 µM | FRET value at saturation [1]: 0.51 ± 0.01 | IC50 [2, 4]: 5.6 ± 0.6 µM

COc1cc(N)c(Cl)cc1C(=O)NC1CCN(CCCOc2ccc(F)cc2)CC1OC (centres unmarked) [Compound 16, Cisapride Monohydrate]
FRET value at saturation [1]: 0.50 ± 0.01

CC1(C)C(=O)C=C[C@@]2(C)C1=C(O)C(=O)[C@]1(C)[C@@H]2CC[C@@]2(C)[C@H](c3ccoc3)C[C@H]3O[C@]321 [Compound 17, Cedrelone]
IC50 range for inhibition of ssDNA binding, in words [1]: high micro-molar range | IC50 [1, 3]: > 300 µM | IC50 [2, 4]: > 100 µM

C[C@H]1[C@H](C)CC[C@]2(C(=O)O)CC[C@]3(C)C(=CC[C@@H]4[C@@]5(C)C[C@@H](O)[C@H](O)[C@@](C)(CO)[C@@H]5CC[C@]43C)[C@H]12 [Compound 18, Asiatic Acid]
IC50 range for inhibition of ssDNA binding, in words [1]: high micro-molar range | IC50 [1, 3]: > 800 µM | IC50 [2, 4]: > 100 µM

O=c1c(O)c(-c2ccc(O)c(O)c2)oc2c(O)c(O)cc(O)c12 [Compound 19, Gossypetin]
IC50 [1]: 0.913 ± 0.058 µM | IC50 range for inhibition of ssDNA binding, in words [1]: nano-molar range | FRET value at saturation [1]: 0.49 ± 0.01 | IC50 [2]: 6 ± 2.3 µM
